Results: US20060134693A1, “Olfactory cyclic nucleotide-gated channel cell-based assays to identify T1R and T2R taste modulators” (priority 2001, published 2006)

Columns and labels:
[1] = target: T1, human sweet receptor hT1R2/hT1R3 (Homo sapiens, UniProt Q7RTX0+Q8TE23); details: prevented by pertussis toxin; cited from earlier work
T1 construct: host or cells: human embryonic kidney cells (earlier application U.S. Ser. No. 10/770,127)
T1 sequence (Q8TE23 20-839): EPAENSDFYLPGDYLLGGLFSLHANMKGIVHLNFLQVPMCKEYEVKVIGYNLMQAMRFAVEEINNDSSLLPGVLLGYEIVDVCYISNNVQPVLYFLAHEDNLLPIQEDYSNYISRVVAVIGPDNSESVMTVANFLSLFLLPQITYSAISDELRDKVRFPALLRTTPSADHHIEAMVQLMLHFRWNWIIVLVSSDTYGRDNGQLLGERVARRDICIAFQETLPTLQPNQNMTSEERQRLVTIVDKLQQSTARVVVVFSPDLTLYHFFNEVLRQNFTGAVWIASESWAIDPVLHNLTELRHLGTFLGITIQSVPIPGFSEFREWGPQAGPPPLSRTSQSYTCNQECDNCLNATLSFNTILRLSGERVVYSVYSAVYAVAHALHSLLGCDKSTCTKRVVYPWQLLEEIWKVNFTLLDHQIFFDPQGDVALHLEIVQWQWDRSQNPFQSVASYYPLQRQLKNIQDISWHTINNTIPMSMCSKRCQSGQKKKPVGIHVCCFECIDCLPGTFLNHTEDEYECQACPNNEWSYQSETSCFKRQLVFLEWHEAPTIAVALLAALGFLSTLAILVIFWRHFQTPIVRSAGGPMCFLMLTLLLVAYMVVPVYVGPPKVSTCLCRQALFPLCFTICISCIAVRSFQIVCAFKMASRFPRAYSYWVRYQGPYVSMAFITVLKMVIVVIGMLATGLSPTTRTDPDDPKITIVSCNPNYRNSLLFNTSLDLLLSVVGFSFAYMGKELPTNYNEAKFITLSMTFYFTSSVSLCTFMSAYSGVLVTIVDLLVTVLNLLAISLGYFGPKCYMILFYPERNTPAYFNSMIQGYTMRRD
T1 sequence (Q7RTX0 21-852): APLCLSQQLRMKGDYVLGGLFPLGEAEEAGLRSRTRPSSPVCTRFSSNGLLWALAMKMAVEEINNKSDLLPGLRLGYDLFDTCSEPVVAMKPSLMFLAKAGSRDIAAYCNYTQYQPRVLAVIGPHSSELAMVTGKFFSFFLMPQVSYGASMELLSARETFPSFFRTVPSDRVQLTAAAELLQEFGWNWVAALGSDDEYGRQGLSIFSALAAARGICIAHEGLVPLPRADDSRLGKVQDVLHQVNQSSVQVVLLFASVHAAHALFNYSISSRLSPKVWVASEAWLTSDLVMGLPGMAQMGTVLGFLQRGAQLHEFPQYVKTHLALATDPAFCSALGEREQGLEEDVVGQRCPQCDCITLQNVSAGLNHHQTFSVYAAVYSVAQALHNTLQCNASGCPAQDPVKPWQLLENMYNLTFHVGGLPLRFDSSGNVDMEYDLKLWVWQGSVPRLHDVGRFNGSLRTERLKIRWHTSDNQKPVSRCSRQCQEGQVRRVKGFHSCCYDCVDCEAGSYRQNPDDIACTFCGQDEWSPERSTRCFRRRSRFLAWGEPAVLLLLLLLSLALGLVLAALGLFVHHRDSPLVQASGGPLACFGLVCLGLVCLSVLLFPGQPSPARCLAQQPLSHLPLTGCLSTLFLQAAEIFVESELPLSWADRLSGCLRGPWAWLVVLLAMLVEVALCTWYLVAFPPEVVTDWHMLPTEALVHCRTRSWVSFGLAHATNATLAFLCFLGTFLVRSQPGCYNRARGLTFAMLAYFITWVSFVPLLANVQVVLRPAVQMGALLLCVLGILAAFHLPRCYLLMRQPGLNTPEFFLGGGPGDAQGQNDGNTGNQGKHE

[2] = system: untransfected HEK 293-oCNGC cells; experiment: Isoproterenol-induced calcium influx in untransfected HEK 293-oCNGC cells; type: cell-based, human; details: for effect on isoproterenol-induced calcium influx: cells not expressing hT1R2/hT1R3, increasing concentrations, 200 nM isoproterenol, FIG. 14
Procedure: Delta F/F valves were normalized to the fluorescence obtained after stimulation with 200 nM isoproterenol. Each value corresponds to the mean ± SD of a triplicate determination.
(§1) Modulation of oCNG activity by taste receptors is measured in a cell-based assay that detects changes in intracellular calcium (as described in earlier examples). In brief, human embryonic kidney cells stably expressing the OCNC1 and are β1b subunits of oCNGC are transiently or stably transfected with T1R or T2R receptor plasmids. Transfected cells are seeded into 384-well culture plates, and functional expression is allowed to proceed for about 24 to 48 hours. The cells are then incubated with a calcium specific fluorescent dye (Fluo-4 or Fura-2, available from Molecular Probes) that provides for fast, simple and reliable fluorimetric detection of changes in calcium concentration within the cell.
An experiment was conducted to confirm that the effects of the sweeteners on calcium influx requires the expression of the sweet receptor.
In FIG. 14, it is shown that increasing concentrations of the tested sweeteners had no inhibitory effect on isoproterenol-induced calcium influx in untransfected HEK 293—oCNGC cells. Again, Delta F/F values were normalized to the fluorescence obtained after stimulation with 200 nM isoproternol and each value component to the mean ± SD of a triplicate determination).

[3] = target: T2, bitter receptor mT2R05 (Mus musculus, UniProt Q9JKT4); experiment: Isoproterenol-induced calcium influx in HEK-293-oCNGC cells expressing mT2R05; type: cell-based; details: 200 nM isoproterenol, FIG. 16
T2 construct: expressed in transfected cells; host or cells: HEK-293 stably expressing OCNC1 and β1b (HEK-293-oCNGC)
T2 sequence (Q9JKT4 1-300): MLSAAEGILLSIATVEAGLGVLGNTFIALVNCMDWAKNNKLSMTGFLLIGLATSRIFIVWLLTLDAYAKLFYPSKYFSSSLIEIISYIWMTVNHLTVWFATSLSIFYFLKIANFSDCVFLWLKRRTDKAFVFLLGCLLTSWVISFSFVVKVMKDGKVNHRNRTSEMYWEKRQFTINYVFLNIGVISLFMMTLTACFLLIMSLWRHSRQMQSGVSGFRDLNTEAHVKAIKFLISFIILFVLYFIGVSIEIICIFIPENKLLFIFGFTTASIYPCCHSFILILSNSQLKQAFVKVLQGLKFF
Procedure: Delta F/F values were normalized to the fluorescence obtained after stimulation with 200 nM isoproterenol. Each value corresponds to the mean +1-SD of a triplicate determination. Cells were also treated with PTX as described for the for the preceding figure.
as §1, with “cell. […]” for “cell.”
More specifically, it was shown that PTx prevented inhibition of calcium inluux even with increasing concentrations of cycloheximide in HEK-293—oCNGC cells expressing mT2R05. As in figures above, Delta F/F values were normalized to the fluorescence obtained after stimulation with 200 nM isoproterenol. […]

[4] = target: T3, mT2R05 (Mus musculus, UniProt Q9JKT4); details: mT2R05-expressing cells; cited from earlier work
T3 construct: host or cells: human embryonic kidney cells (earlier application)
T3 sequence (Q9JKT4 1-300): T2 sequence (Q9JKT4 1-300)

[5] = target: T4, mouse bitter receptor mT2R05 (Mus musculus, UniProt Q9JKT4); details: abolished by pertussis toxin; cited from earlier work
T4 construct: host or cells: human embryonic kidney cells (earlier application)
T4 sequence (Q9JKT4 1-300): T2 sequence (Q9JKT4 1-300)

[6] = system: rat bitter receptors rT2R9; details: abolished by pertussis toxin; cited from earlier work
[7] = target: T5, hT1R1/hT1R3 (Homo sapiens, UniProt Q7RTX0+Q7RTX1); details: hT1R1/hT1R3-expressing cells; cited from earlier work
T5 construct: host or cells: human embryonic kidney cells (earlier application U.S. Ser. No. 10/770,127)
T5 sequence (Q7RTX1 21-841): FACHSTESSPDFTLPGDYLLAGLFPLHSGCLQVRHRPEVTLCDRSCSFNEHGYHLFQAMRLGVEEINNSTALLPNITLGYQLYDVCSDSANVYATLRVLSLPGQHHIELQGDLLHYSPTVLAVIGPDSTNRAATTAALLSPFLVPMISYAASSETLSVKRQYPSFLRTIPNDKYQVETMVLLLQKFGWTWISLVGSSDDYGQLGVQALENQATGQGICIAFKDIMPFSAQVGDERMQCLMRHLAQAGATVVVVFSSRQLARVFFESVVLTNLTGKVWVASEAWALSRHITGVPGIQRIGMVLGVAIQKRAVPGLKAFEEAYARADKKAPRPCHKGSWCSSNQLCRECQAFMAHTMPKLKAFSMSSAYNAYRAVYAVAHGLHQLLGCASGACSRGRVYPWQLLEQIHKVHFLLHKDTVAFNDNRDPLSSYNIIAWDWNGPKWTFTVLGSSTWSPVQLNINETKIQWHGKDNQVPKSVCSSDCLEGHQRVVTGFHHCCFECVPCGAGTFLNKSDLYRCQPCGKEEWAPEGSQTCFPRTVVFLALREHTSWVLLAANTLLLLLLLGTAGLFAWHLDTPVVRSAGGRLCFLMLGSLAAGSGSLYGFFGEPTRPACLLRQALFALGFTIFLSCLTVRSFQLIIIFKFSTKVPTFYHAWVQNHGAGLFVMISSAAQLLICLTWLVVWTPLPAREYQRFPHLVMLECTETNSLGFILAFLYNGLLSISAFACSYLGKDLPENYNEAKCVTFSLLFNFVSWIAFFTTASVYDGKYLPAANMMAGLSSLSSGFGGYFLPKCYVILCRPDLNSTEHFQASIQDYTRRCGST
T5 sequence (Q7RTX0 21-852): T1 sequence (Q7RTX0 21-852)

[8] = target: T6, human umami receptor hT1R1/hT1R3 (Homo sapiens, UniProt Q7RTX0+Q7RTX1); details: prevented by pertussis toxin; cited from earlier work
T6 sequence (Q7RTX1 21-841): T5 sequence (Q7RTX1 21-841)
T6 sequence (Q7RTX0 21-852): T1 sequence (Q7RTX0 21-852)

[9] = target: T1, human sweet receptor hT1R2/hT1R3; experiment: Isoproterenol-induced calcium influx in HEK-293-oCNGC cells expressing hT1R2/hT1R3; type: cell-based; details: PTX 100 ng/ml for 4 hours; 200 nM isoproterenol; 5 mM Aspartame, 2 mM Cyclamate, 4 mM Saccharin, 0.1 mM Neotame; FIG. 15
Procedure: FIG. 13 contains the result of an experiment showing that increasing concentrations of sweeteners inhibit the isoproterenol-induced-calcium influx in HEK 293-oCNGC cells expressing the human sweet receptor hT1R2/hT1R3. Delta F/F values were normalized to the fluorescence obtained after stimulation with 200 nM isoproterenol. Each value corresponds to the mean ± SD of a triplicate determination.
Cells were left untreated (control) or treated with PTX for 4 hours at 100 ng/ml prior to the experiment. Cells were then stimulated with 200 nM isoproterenol in the presence or absence of the indicated sweeteners (5 mM Aspartame, 2 mM Cyclamate, 4 mM Saccharin and 0.1 mM Neotame).
as §1
An experiment was conducted to assess the effect of various sweeteners (known to activate the human T1R2/T1R3 sweet receptor) on isoproterenol-induced calcium influx in HEK-293—oCNGC cells that express the human T1R2/T1R3 sweet receptor. As shown by the results in FIG. 13, increasing concentrations of sweetener inhibits isoproterenol-induced calcium influx in these cells. (In the figure, Delta F/F values were normalized to the fluorescence obtained after stimulation with 200 nM isoproterenol and each value corresponds to the means ± SD of a triplicate determination). […]

## N[C@H](Cc1c[nH]c2ccccc12)C(=O)O [D-tryptophan]
[1]
  ERK1/2 activation: activate ERK1/2

## C[C@@H]1C[C@@H]([C@H](O)CC2CC(=O)NC(=O)C2)C(=O)[C@@H](C)C1 [cycloheximide]
[2]; untransfected HEK 293-oCNGC cells, FIG. 16
  response of mT2R05 untransfected cells: did not respond
[3]; cells treated with PTx
  effect on isoproterenol-induced calcium influx after PTx treatment: failed to inhibit isoproterenol-induced calcium influx
[3]; increasing concentrations
  effect on isoproterenol-induced calcium influx: inhibited isoproterenol-induced calcium influx
[4]
  inhibition of forskolin-induced cAMP accumulation: 70%
[5]
  ERK1/2 activation: specifically activates ERK1/2
[6]
  ERK1/2 activation: specifically activates ERK1/2

## N[C@@H](CCC(=O)O)C(=O)[O-].[Na+] [monosodium glutamate]
[7]
  decrease of basal levels of cAMP: 50%
[8]
  ERK1/2 activation: exclusively activates ERK1/2

## COC(=O)[C@H](Cc1ccccc1)NC(=O)[C@H](CC(=O)O)NCCC(C)(C)C [neotame]
[2]
  effect on isoproterenol-induced calcium influx: unaffected
[9]
  inhibition of isoproterenol-induced calcium influx after PTx pretreatment: prevented the inhibition

## O=C1NS(=O)(=O)c2ccccc21 [saccharin]
[1]
  ERK1/2 activation: activate ERK1/2
[2]
  effect on isoproterenol-induced calcium influx: unaffected
[9]
  inhibition of isoproterenol-induced calcium influx after PTx pretreatment: prevented the inhibition

## OC[C@H]1O[C@@](CO)(O[C@H]2O[C@H](CO)[C@@H](O)[C@H](O)[C@H]2O)[C@@H](O)[C@@H]1O [sucrose]
[1]
  ERK1/2 activation: activate ERK1/2
